Source: BindingDB's records for doi:10.1021/jm950699x (Rhône-Poulenc Rorer, 1996)

Target: Leukotriene B4 receptor (Cavia porcellus)
Assay: Compound was evaluated for Leukotriene B4 receptor binding, obtained from radioligand binding assay using guinea pig spleen cell membrane

- IC50: > 300 nM
SMILES: CCOC(=O)/C=C/c1cn(CC(=O)N(C)CCc2ccccc2)c2ccc(OCc3ccccc3)cc12 [(E)-3-{5-Benzyloxy-1-[(methyl-phenethyl-carbamoyl)-methyl]-1H-indol-3-yl}-acrylic acid ethyl ester]
